Consider one substance from US8444953B2, “Symmetric and asymmetric halogen-containing metallocarboranylporphyrins and uses thereof” (Brookhaven Science Associates, LLC, priority 2007, dated 2013).

Data set [1] in a line: Weight changes and hematologic parameters that indicate toxicity. The data set is classed as in vivo, mice. Particulars: for % Weight change / Granulocytes / Lymphocytes / Platelets: 220 mg/kg (43 mg B/kg), median (range).
For data set [2], the system named is BALB/c mice bearing subcutaneously implanted EMT-6 mammary carcinomas. Briefly: Biodistribution of porphyrin XV in mice bearing EMT-6 carcinomas (boron analyses of tissues). The data set is classed as in vivo. Particulars: 220 mg/kg (43 mg B/kg), 6 i.p. injections over 2 days, median (range), n = 5. How it is done: Porphyrin compound (XV) was emulsified in 9% Cremophor EL and 18% propylene glycol in saline.
To prepare a solution of ˜3.7 mg/mL porphyrin in 9% Cremophor EL (CRM) and 18% propylene glycol (PRG), the porphyrin was dissolved in tetrahydrofuran (THF) (1.5% of the total volume) and then heated to 40° C. for 15 min. CRM (9% of total volume) was then added and the mixture was heated to 60° C., for 2 hours, which removed most of the THF. After cooling to room temperature, PRG (18% of total volume) was added, followed by slow dropwise addition of saline (71.5% of total volume) with rapid stirring. The solution was degassed by stirring under vacuum (˜30 mm Hg) for 30-60 min and then filtered (Millipore, 8 μm).
BALB/c mice bearing subcutaneously implanted EMT-6 mammary carcinomas implanted on the dorsal thorax were given a total dose of 220 milligrams porphyrin compound XV per kilogram body weight (43 mg B/kg). At one and two days after the last injection, mice were euthanized, and tumor, blood, brain, and liver were removed for boron analyses. The blood was first analyzed for hematologic parameters that indicate toxicity before it was analyzed for boron.

Where [3] appears, read: mice, 1 day after last injection.
[4] abbreviates: mice, 2 days after last injection.

Marks after values point to notes of the source that are not given here.

For “Copper (II) 5,10,15-tris[3-o-carboranylmethoxyphenyl]-20-[2,6-difluorophenyl]porphyrin [Porphyrin XV]”, in data set [1] (mice receiving porphyrin, 220 mg/kg), the “median % weight loss (in words)” value was “not significant”. For the same substance, in data set [1] (setting [3]), the “% Weight change” value is given as −0.6 (−3.4-3.3) %, the Granulocytes was 52 (49.8-65.1), the Lymphocytes is recorded as 44.3 (31.8-46.5)^b and the Platelets is recorded as 374 (158-879)^a. Further, in data set [1] (setting [4]), the “% Weight change” value is on record as −0.2 (−3.3-3.8) %, the Granulocytes is 54.0 (52.4-57.8), the Lymphocytes was 42.6 (38.4-44.1) and the Platelets is 478 (91-661)^b. Further, the “toxicity (in words)” value in data set [1] (mice, 220 mg/kg, weight and hematologic parameters) was “quite mild and transient”. In addition, in data set [2] (1 day after last injection), the “Average boron concentration, Blood” value is reported as 47 (38-121) μg B/g; the “Average boron concentration, Brain” value is recorded as 1.0 (0.6-1.7) μg B/g; the “Average boron concentration, EMT-6 Tumor” value is recorded as 66 (24-153) μg B/g; the “Average boron concentration, Liver” value was 300 (245-319) μg B/g. In addition, the “Average boron concentration, Skin (pinna)” value in data set [2] (1 day after last injection) is 5.9 (4.9-9.9) μg B/g. Further, in data set [2] (2 days after last injection), the “Average boron concentration, Blood” value was 0.4 (0.3-4.5) μg B/g; the “Average boron concentration, Brain” value is on record as 0.1 (0-0.2) μg B/g; the “Average boron concentration, EMT-6 Tumor” value is 88 (44-115) μg B/g; the “Average boron concentration, Liver” value is listed as 375 (364-419) μg B/g. In addition, the “Average boron concentration, Skin (pinna)” value in data set [2] (2 days after last injection) is 6.6 (3.6-8.1) μg B/g.
